From ChEMBL document CHEMBL3774368, “1,2,4-Triazolyl octahydropyrrolo[2,3-b]pyrroles: A new series of potent and selective dopamine D3 receptor antagonists” (Bioorg Med Chem, 2016)

Experiments:
[1] = molecular target: D(3) dopamine receptor (Homo sapiens, UniProt P35462); experiment: Displacement of [3H]-spiperone from human dopamine D3 receptor expressed in CHO-K1 cell membranes after 90 mins by liquid scintillation counter method
[2] = molecular target: D(2) dopamine receptor (Homo sapiens, UniProt P14416); experiment: Displacement of [3H]-spiperone from human dopamine D2 receptor expressed in CHO-K1 cell membranes after 120 mins by liquid scintillation counter method
Chain of D(2) dopamine receptor (P14416 whole entry): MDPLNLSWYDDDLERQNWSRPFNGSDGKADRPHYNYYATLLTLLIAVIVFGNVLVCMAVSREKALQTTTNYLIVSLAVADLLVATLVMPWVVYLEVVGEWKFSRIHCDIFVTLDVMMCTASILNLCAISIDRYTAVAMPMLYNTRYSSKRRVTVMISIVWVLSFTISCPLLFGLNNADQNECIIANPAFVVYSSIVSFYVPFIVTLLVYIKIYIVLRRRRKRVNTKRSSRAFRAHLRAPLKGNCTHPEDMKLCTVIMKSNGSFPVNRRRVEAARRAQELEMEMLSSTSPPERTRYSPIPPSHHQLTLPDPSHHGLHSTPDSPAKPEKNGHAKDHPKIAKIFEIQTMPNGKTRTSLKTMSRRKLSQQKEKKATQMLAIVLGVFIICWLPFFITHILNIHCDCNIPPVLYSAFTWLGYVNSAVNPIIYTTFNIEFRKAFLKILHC

[3] = molecular target: Voltage-gated inwardly rectifying potassium channel KCNH2 (Homo sapiens, UniProt Q12809); experiment: Inhibition of human ERG tail current expressed in HEK293 cells after 5 mins by patch clamp assay
Chain of Voltage-gated inwardly rectifying potassium channel KCNH2 (Q12809 whole entry): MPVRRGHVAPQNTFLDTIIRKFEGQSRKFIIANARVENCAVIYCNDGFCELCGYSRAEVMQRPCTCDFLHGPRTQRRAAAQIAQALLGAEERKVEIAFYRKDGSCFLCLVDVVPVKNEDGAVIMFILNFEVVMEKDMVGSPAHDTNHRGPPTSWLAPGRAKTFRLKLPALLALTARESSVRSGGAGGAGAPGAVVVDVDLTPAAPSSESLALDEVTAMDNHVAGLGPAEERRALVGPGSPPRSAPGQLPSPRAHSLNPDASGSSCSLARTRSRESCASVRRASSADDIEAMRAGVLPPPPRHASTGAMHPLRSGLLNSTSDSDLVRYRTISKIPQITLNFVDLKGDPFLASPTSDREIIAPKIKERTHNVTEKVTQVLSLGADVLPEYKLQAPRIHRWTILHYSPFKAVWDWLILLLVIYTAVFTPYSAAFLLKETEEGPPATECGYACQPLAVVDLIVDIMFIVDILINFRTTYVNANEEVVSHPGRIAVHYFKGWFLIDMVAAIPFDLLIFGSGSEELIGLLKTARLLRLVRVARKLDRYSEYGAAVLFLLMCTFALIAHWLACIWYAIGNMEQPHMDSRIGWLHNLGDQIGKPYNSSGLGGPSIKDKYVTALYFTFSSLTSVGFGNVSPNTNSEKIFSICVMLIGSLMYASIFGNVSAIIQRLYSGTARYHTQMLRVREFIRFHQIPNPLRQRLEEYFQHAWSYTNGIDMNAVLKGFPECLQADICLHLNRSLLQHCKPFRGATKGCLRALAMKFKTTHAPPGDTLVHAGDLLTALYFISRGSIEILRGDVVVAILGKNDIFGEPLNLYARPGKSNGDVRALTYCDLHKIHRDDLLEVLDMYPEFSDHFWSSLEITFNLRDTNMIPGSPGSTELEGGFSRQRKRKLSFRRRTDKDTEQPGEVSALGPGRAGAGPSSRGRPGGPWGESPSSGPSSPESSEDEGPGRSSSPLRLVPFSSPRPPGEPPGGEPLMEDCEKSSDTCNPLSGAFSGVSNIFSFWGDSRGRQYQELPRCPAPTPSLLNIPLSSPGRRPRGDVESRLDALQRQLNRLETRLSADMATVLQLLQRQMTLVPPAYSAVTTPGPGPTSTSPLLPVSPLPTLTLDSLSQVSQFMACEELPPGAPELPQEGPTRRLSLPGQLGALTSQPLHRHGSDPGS

Chain of D(3) dopamine receptor (P35462 whole entry): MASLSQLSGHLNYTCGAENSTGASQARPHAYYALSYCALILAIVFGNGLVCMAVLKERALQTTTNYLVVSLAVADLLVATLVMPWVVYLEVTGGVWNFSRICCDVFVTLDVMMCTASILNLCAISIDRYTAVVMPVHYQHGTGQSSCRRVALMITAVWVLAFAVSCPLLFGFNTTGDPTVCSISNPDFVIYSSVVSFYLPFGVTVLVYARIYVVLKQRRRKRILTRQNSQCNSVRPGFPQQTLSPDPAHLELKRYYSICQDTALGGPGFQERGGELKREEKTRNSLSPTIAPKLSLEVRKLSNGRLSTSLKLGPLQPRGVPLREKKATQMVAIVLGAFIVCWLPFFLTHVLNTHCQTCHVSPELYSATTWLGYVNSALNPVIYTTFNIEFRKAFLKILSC

Structure (SMILES)	Ki [1] [nM]	Ki [2] [nM]	IC50 [3] [nM]
Cn1c(SCCCN2CC3CCN(c4ccccc4C(F)(F)F)C3C2)nnc1-c1cccnc1 (racemic)	–	794	–
Cn1cc(-c2nnc(SCCCN3CC4CCN(c5ccc(C(F)(F)F)cc5)C4C3)n2C)cn1 (racemic)	–	200	–
Cn1c(SCCCN2CC3CCN(c4ccc(C(F)(F)F)cc4)C3C2)nnc1-c1ccccn1 (racemic)	–	398	–
Cc1ncoc1-c1nnc(SCCCN2CC3CN(c4ccc(C(F)(F)F)cc4)C3C2)n1C (racemic)	39.8	–	631
Cc1ccccc1N1CCC2CN(CCCSc3nnc(-c4cnccn4)n3C)CC21 (racemic)	126	–	–
Cc1ncoc1-c1nnc(SCCCN2CC3CCN(c4cccc(C#N)c4)C3C2)n1C (racemic)	–	50.1	–
Cn1c(SCCCN2CC3CCN(c4ccc(F)cc4)C3C2)nnc1-c1cc[nH]c(=O)c1 (racemic)	–	631	–
Cn1c(SCCCN2CC3CCN(c4ccccc4C#N)C3C2)nnc1-c1cnccn1 (racemic)	6.31	200	–
Cn1c(SCCCN2CC3CCN(c4ccc(C#N)cc4)C3C2)nnc1-c1cnccn1 (racemic)	126	6310	–
Cn1c(SCCCN2CC3CCN(c4ccc(C(F)(F)F)cc4)C3C2)nnc1-c1cnccn1 (stereo in doubt; 17a)	–	501	–
Cn1c(SCCCN2CC3CCN(c4ccc(F)cc4)C3C2)nnc1C1CCCCC1 (racemic)	12.6	794	–
Cn1c(SCCCN2CC3CCN(c4c(F)cccc4F)C3C2)nnc1-c1cnccn1 (racemic)	–	631	–
Cn1c(SCCCN2CC3CCN(c4ccc(C(F)(F)F)cc4)C3C2)nnc1-c1ccnnc1 (racemic)	12.6	631	–
COc1ccccc1N1CCC2CN(CCCSc3nnc(-c4cnccn4)n3C)CC21 (racemic)	15.8	316	–
Cn1c(SCCCN2CC3CCN(c4ccc(C(F)(F)F)cc4)C3C2)nnc1-c1cccnn1 (racemic)	50.1	316	–
Cn1c(SCCCN2CC3CCN(c4ccc(C(F)(F)F)cc4)C3C2)nnc1N1CCOCC1 (racemic)	–	200	–
Cc1ccc(N2CCC3CN(CCCSc4nnc(-c5cnccn5)n4C)CC32)cc1 (racemic)	7.94	631	–
Cc1ncoc1-c1nnc(SCCCN2CC3CCN(c4ccc(F)cc4)C3C2)n1C (racemic)	–	200	–
CC(C)Oc1ccccc1N1CCC2CN(CCCSc3nnc(-c4cnccn4)n3C)CC21 (racemic)	10	251	–
Cc1ncoc1-c1nnc(SCCCN2CC3CCCN(c4ccc(C(F)(F)F)cc4)C3C2)n1C (racemic)	12.6	–	–
Cn1c(SCCCN2CC3CCN(c4ccc(C(F)(F)F)cc4)C3C2)nnc1-c1cc[nH]c(=O)c1 (stereo in doubt; 55a)	15.8	2000	–
Cn1c(SCCCN2CC3CCN(c4ccc(C(F)(F)F)cc4)C3C2)nnc1C1CCCCC1 (stereo in doubt; 65a)	12.6	–	–

Structure (SMILES)	Ki [1] [nM]	Ki [2] [nM]	IC50 [3] [nM]
Cc1ncoc1-c1nnc(SCCCN2CC3OCCN(c4ccc(C(F)(F)F)cc4)C3C2)n1C (racemic)	31.6	–	–
Cc1ncoc1-c1nnc(SCCCN2CC3CCN(c4ccc(F)cc4)C3C2)n1C (stereo in doubt; 9b)	–	200	–
Cc1ncoc1-c1nnc(SCCCN2CC3CCN(c4ccccc4)C3C2)n1C (racemic)	–	251	–
Cc1ncoc1-c1nnc(SCCCN2CC3CCN(c4ccc(Cl)cc4Cl)C3C2)n1C (racemic)	5.01	501	1260
Cn1c(SCCCN2CC3CCN(c4ccc(C(F)(F)F)cc4)C3C2)nnc1C1CCCCC1 (racemic)	39.8	6310	–
Cn1c(SCCCN2CC3CCN(c4ccc(C(F)(F)F)cc4)C3C2)nnc1-c1cncnc1 (racemic)	50.1	1260	–
Cn1c(SCCCN2CC3CCN(c4ccccc4)C3C2)nnc1C1CCOCC1 (stereo in doubt; 62b)	25.1	–	–
Cn1c(SCCCN2CC3CCN(c4ccccc4)C3C2)nnc1C1CCOCC1 (racemic)	12.6	–	–
Cn1c(SCCCN2CC3CCN(c4ccc(F)cc4)C3C2)nnc1-c1ccn(C)c(=O)c1 (racemic)	7.94	398	–
Cn1c(SCCCN2CC3CCN(c4ccc(F)cc4C(F)(F)F)C3C2)nnc1-c1cnccn1 (racemic)	25.1	–	–
CC(C)Oc1ccccc1N1CCC2CN(CCCSc3nnc(-c4cnccn4)n3C)CC21 (stereo in doubt; 35a)	63.1	5010	–
Cc1ncoc1-c1nnc(SCCCN2CC3CCN(c4ccc(C(F)(F)F)cc4F)C3C2)n1C (stereo in doubt; 8a)	5.01	1580	200
Cn1c(SCCCN2CC3CCN(c4ccc(C(F)(F)F)cc4)C3C2)nnc1-c1ccc(=O)n(C)c1 (racemic)	6.31	–	–
Cn1c(SCCCN2CC3CCN(c4ccc(C(F)(F)F)cc4)C3C2)nnc1-c1cc[nH]c(=O)c1 (racemic)	7.94	631	1260
Cn1c(SCCCN2CC3CCN(c4ccc(OC(F)(F)F)cc4)C3C2)nnc1-c1cnccn1 (racemic)	12.6	316	–
Cn1c(SCCCN2CC3CCN(c4ccc(F)cc4F)C3C2)nnc1-c1cnccn1 (racemic)	10	398	–
Cc1ncoc1-c1nnc(SCCCN2CC3CCN(c4cccc(C#N)c4)C3C2)n1C (stereo in doubt; 12b)	6.31	631	794
Cn1c(SCCCN2CC3CCN(c4ccc(F)cc4F)C3C2)nnc1-c1cnccn1 (stereo in doubt; 36a)	10	1000	–
Cc1ncoc1-c1nnc(SCCCN2CC3CCN(c4ccc(OC(F)(F)F)cc4)C3C2)n1C (racemic)	–	631	–
Cn1c(SCCCN2CC3CCN(c4ccccc4C(F)(F)F)C3C2)nnc1-c1cccnc1 (stereo in doubt; 52b)	–	1260	–
Cc1ncoc1-c1nnc(SCCCN2CC3CCN(c4ccccc4)C3C2)n1C (stereo in doubt; 6a)	–	398	1580

Continued, in another order:

Ki [1] [nM]	Ki [2] [nM]	Structure (SMILES)	IC50 [3] [nM]
0.316	–	Cn1c(SCCCN2CC3CCN(c4cccc(OC(F)(F)F)c4)C3C2)nnc1-c1cnccn1 (racemic)	–
2.51	158	Cc1cc(-c2nnc(SCCCN3CC4CCN(c5ccc(C(F)(F)F)cc5)C4C3)n2C)on1 (racemic)	–
5.01	251	Cn1c(SCCCN2CC3CCN(c4cccc(F)c4)C3C2)nnc1-c1cnccn1 (racemic)	–
1.58	–	Cc1ncoc1-c1nnc(SCCCN2CC3CCN(c4ccc(C(F)(F)F)cc4)C3C2)n1C (racemic)	–
5.01	251	Cn1c(SCCCN2CC3CCN(c4ccccc4C(F)(F)F)C3C2)nnc1-c1ccncc1 (racemic)	–
5.01	316	Cn1c(SCCCN2CC3CCN(c4ccccc4C(F)(F)F)C3C2)nnc1-c1ccccn1 (racemic)	–
2	100	Cn1c(SCCCN2CC3CCN(c4cccc(C#N)c4)C3C2)nnc1-c1cnccn1 (racemic)	–
3.98	–	Cc1cccc(N2CCC3CN(CCCSc4nnc(-c5cnccn5)n4C)CC32)c1 (racemic)	–
3.16	–	Cn1c(SCCCN2CC3CCN(c4ccc(C(F)(F)F)cc4)C3C2)nnc1N1CCOCC1 (stereo in doubt; 61a)	–
2	–	Cc1ncoc1-c1nnc(SCCCN2CC3CCN(c4ccc(C(F)(F)F)cc4)C3C2)n1C (stereo in doubt; 7a)	–
2.51	–	Cc1ncoc1-c1nnc(SCCCN2CC3CCN(c4c(F)cccc4F)C3C2)n1C (racemic)	–
1	20	Cc1ncoc1-c1nnc(SCCCN2CC3CCN(c4ccccc4OC(F)(F)F)C3C2)n1C (racemic)	–
3.98	398	Cn1c(SCCCN2CC3CCN(c4c(F)cccc4C(F)(F)F)C3C2)nnc1-c1cnccn1 (racemic)	–
3.16	501	COc1cc(N2CCC3CN(CCCSc4nnc(-c5cnccn5)n4C)CC32)ccc1F (racemic)	–
0.2	31.6	Cn1c(SCCCN2CC3CCN(c4cccc(C(F)(F)F)c4)C3C2)nnc1-c1cnccn1 (racemic)	–
1	631	Cn1c(SCCCN2CC3CCN(c4c(F)cc(F)cc4F)C3C2)nnc1-c1cnccn1 (racemic)	–
0.398	–	Cn1c(SCCCN2CC3CCN(c4ccc(C(F)(F)F)cc4)C3C2)nnc1C1CCCC1 (racemic)	–
0.2	–	Cn1c(SCCCN2CC3CCN(c4ccc(C(F)(F)F)cc4)C3C2)nnc1C1CCCC1 (stereo in doubt; 64a)	–
2	200	Cn1c(SCCCN2CC3CCN(c4ccc(F)cc4)C3C2)nnc1-c1cnccn1 (racemic)	–
0.398	10	Cc1ncoc1-c1nnc(SCCCN2CC3CCN(c4cc(Cl)cc(Cl)c4)C3C2)n1C (racemic)	< 100
2	398	Cn1c(SCCCN2CC3CCN(c4ccc(C(F)(F)F)cc4)C3C2)nnc1-c1ccncc1 (racemic)	–
2	100	Cc1ncoc1-c1nnc(SCCCN2CC3CCN(c4ccc(C(F)(F)F)cc4F)C3C2)n1C (racemic)	15800
3.16	–	Cc1ncoc1-c1nnc(SCCCN2CC3CCN(c4ccc(C(F)(F)F)cc4)C3C2)n1C (stereo in doubt; 7b)	–
3.16	–	Cn1c(SCCCN2CC3CCN(c4ccc(C(F)(F)F)cc4)C3C2)nnc1-c1cccnc1 (racemic)	–
3.98	398	Cn1c(SCCCN2CC3CCN(c4ccc(C(F)(F)F)cc4)C3C2)nnc1-c1ccc(=O)[nH]c1 (racemic)	1000
2	200	Cn1c(SCCCN2CC3CCN(c4ccc(C(F)(F)F)cc4)C3C2)nnc1N1CCOCC1 (stereo in doubt; 61b)	–
